The nature of the test: In vitro inhibitory activity against E2F-1/Cyclin A was determined using ELISA assay.

Residues, ends and D or L forms follow the SMILES beside them. *: point of attachment. Cyclohexanecarbonyl = O=C(C1CCCCC1)*; Cyclopentanecarbonyl = O=C(C1CCCC1)*; Cyclopropanecarbonyl = O=C(C1CC1)*; Isobutyryl = CC(C)C(=O)*; Piv = CC(C)(C)C(=O)*; Propionyl = CCC(=O)*; Bz = O=C(c1ccccc1)* Where only a bound is given, the exact number is not on record here.

`CC(C)C[C@H](NC(=O)[C@H](CC(=O)O)NC(=O)[C@H](CC(C)C)NC(=O)[C@H](CCCN=C(N)N)NC(=O)[C@H](CCCN=C(N)N)NC(=O)[C@H](CCCCN)NC(=O)[C@@H](NC(=O)[C@@H]1CCCN1)C(C)C)C(=O)O` gave an IC50 of 100 nM.

In the case of `CC(=O)N1CCC[C@H]1C(=O)N[C@H](C(=O)N[C@@H](CCCCN)C(=O)N[C@@H](CCCN=C(N)N)C(=O)N[C@@H](CCCCN)C(=O)N[C@@H](CC(C)C)C(=O)N[C@H](Cc1ccccc1)C(=O)NCC(=O)O)C(C)C`, half-maximal inhibition (IC50) was put at 250 nM.

`CC(=O)N1CCC[C@H]1C(=O)N[C@H](C(=O)N[C@@H](CCCCN)C(=O)N[C@@H](CCCN=C(N)N)C(=O)N[C@H](CCCCN)C(=O)N[C@@H](CC(C)C)C(=O)N[C@@H](Cc1ccccc1)C(=O)NCC(=O)O)C(C)C`: the IC50 is 5000 nM.

With `CC(=O)N[C@@H](CCCN=C(N)N)C(=O)N[C@@H](CCCCN)C(=O)N[C@@H](CC(C)C)C(=O)N[C@@H](Cc1ccccc1)C(=O)NCC(=O)O`, the IC50 was found to be 30000 nM.

The compound `CC(=O)N1CCC[C@H]1C(=O)N[C@H](C(=O)N[C@@H](CCCCN)C(=O)N[C@@H](CCCN=C(N)N)C(=O)N[C@@H](CCCCN)C(=O)N[C@@H](CC(C)C)C(=O)N[C@@H](Cc1ccccc1)C(=O)NCC(=O)O)C(C)C` gave an IC50 of 100 nM.

With `CC(=O)N1CCC[C@H]1C(=O)N[C@H](C(=O)N[C@@H](CCCCN)C(=O)N[C@H](CCCN=C(N)N)C(=O)N[C@@H](CCCCN)C(=O)N[C@@H](CC(C)C)C(=O)N[C@@H](Cc1ccccc1)C(=O)NCC(=O)O)C(C)C`, the IC50 came to 45000 nM.

As to `CC(=O)N[C@@H](CCCCN)C(=O)N[C@@H](CC(C)C)C(=O)N[C@@H](Cc1ccccc1)C(=O)NCC(=O)O` (Ac-KLFG-OH), the concentration for half-maximal inhibition (IC50) came to 45000 nM.

With `CC(C)C[C@H](NC(=O)[C@H](CCCCN)NC(=O)[C@H](CCCN=C(N)N)NC(=O)[C@H](CCCCN)NC(=O)c1ccccc1)C(=O)N[C@@H](Cc1ccccc1)C(=O)NCC(=O)O` (Bz-KRKLFG-OH), the IC50 worked out at 1500 nM.

For the compound `CC(C)C[C@H](NC(=O)[C@H](CCCCN)NC(=O)[C@H](CCCN=C(N)N)NC(=O)[C@H](CCCCN)NC(=O)C1CCCCC1)C(=O)N[C@@H](Cc1ccccc1)C(=O)NCC(=O)O` (Cyclohexanecarbonyl-KRKLFG-OH), the IC50 was 450 nM.

`CC(C)C[C@H](NC(=O)[C@H](CCCCN)NC(=O)[C@H](CCCN=C(N)N)NC(=O)[C@H](CCCCN)NC(=O)C1CCCC1)C(=O)N[C@@H](Cc1ccccc1)C(=O)NCC(=O)O` (Cyclopentanecarbonyl-KRKLFG-OH) displayed an IC50 of 350 nM.

`CC(C)C[C@H](NC(=O)[C@H](CCCCN)NC(=O)[C@H](CCCN=C(N)N)NC(=O)[C@H](CCCCN)NC(=O)C1CC1)C(=O)N[C@@H](Cc1ccccc1)C(=O)NCC(=O)O` (Cyclopropanecarbonyl-KRKLFG-OH) had an IC50 of 150 nM.

Regarding `CC(C)C[C@H](NC(=O)[C@H](CCCCN)NC(=O)[C@H](CCCN=C(N)N)NC(=O)[C@H](CCCCN)NC(=O)C(C)C)C(=O)N[C@@H](Cc1ccccc1)C(=O)NCC(=O)O` (Isobutyryl-KRKLFG-OH), the IC50 turned out to be 150 nM.

`CC(C)C[C@H](NC(=O)[C@H](CCCCN)NC(=O)[C@H](CCCN=C(N)N)NC(=O)[C@H](CCCCN)NC(=O)C(C)(C)C)C(=O)N[C@@H](Cc1ccccc1)C(=O)NCC(=O)O` (Piv-KRKLFG-OH) had an IC50 of 150 nM.

`CCC(=O)N[C@@H](CCCCN)C(=O)N[C@@H](CCCN=C(N)N)C(=O)N[C@@H](CCCCN)C(=O)N[C@@H](CC(C)C)C(=O)N[C@@H](Cc1ccccc1)C(=O)NCC(=O)O` (Propionyl-KRKLFG-OH): half-maximal inhibition (IC50) was put at 450 nM.

Take `CC(C)C[C@H](NC(=O)[C@H](CC(N)=O)NC(=O)[C@H](CCCN=C(N)N)NC(=O)C(CS)NC(=O)[C@H](C)NC(=O)C(N)CO)C(=O)N[C@@H](Cc1ccccc1)C(=O)NCC(=O)O` (single isomer, unassigned): the IC50 worked out at 200 nM.

Compound Ac-AKRKLFG-OH gave a 50% inhibitory concentration (IC50) of 200 nM.

Ac-KRKLFG-OH yielded an IC50 of 1000 nM.

Compound H-PAKRKLFG-OH gave an IC50 of 100 nM.

In turn, H-PVKARADL-OH had an IC50 greater than 100000 nM.
